Source: ChEMBL document CHEMBL5518226, “A Vancomycin-Templated DNA-Encoded Library for Combating Drug-Resistant Bacteria” (2024)
Converted amounts (≈) assume the structure as drawn.

How the values were obtained:
Format in all cases: functional
[1] = system: Enterococcus faecium; test: Antibacterial activity against vancomycin-resistant Enterococcus faecium 0649 assessed as reduction in bacterial growth by measuring fold change at 0.0625 to 64 ug/ml incubated for 24 hrs by CLSI protocol based broth microdilution method relative to vancomycin; details: dose 0.0625-64 µg/ml
[2] = system: Staphylococcus aureus; test: Antibacterial activity against methicillin sensitive Staphylococcus aureus Newman assessed as inhibition of bacterial growth incubated for 24 hrs by CLSI protocol based broth microdilution method
[3] = system: Staphylococcus aureus; test: Antibacterial activity against methicillin sensitive Staphylococcus aureus clinical isolate 20-45 assessed as inhibition of bacterial growth incubated for 24 hrs by CLSI protocol based broth microdilution method
[4] = system: Staphylococcus aureus; test: Antibacterial activity against methicillin sensitive Staphylococcus aureus ATCC29213 assessed as inhibition of bacterial growth incubated for 24 hrs by CLSI protocol based broth microdilution method
[5] = system: Staphylococcus aureus; test: Antibacterial activity against methicillin resistant Staphylococcus aureus USA300 assessed as inhibition of bacterial growth incubated for 24 hrs by CLSI protocol based broth microdilution method
[6] = system: Staphylococcus aureus; test: Antibacterial activity against methicillin resistant Staphylococcus aureus clinical isolate 20-34 assessed as inhibition of bacterial growth incubated for 24 hrs by CLSI protocol based broth microdilution method
[7] = system: Staphylococcus aureus; test: Antibacterial activity against vancomycin-intermediate resistant Staphylococcus aureus ATCC700699 assessed as inhibition of bacterial growth incubated for 24 hrs by CLSI protocol based broth microdilution method
[8] = system: Staphylococcus epidermidis; test: Antibacterial activity against methicillin sensitive Staphylococcus epidermidis clinical isolate 20-1 assessed as inhibition of bacterial growth incubated for 24 hrs by CLSI protocol based broth microdilution method
[9] = system: Enterococcus faecalis; test: Antibacterial activity against Enterococcus faecalis clinical isolate 20-11 assessed as inhibition of bacterial growth incubated for 24 hrs by CLSI protocol based broth microdilution method
[10] = system: Enterococcus faecalis; test: Antibacterial activity against vancomycin resistant Enterococcus faecalis clinical isolate 20-1 assessed as inhibition of bacterial growth incubated for 24 hrs by CLSI protocol based broth microdilution method
[11] = system: Enterococcus faecium; test: Antibacterial activity against Enterococcus faecium clinical isolate 20-15 assessed as inhibition of bacterial growth incubated for 24 hrs by CLSI protocol based broth microdilution method
[12] = system: Enterococcus faecium; test: Antibacterial activity against Enterococcus faecium clinical isolate 20-16 assessed as inhibition of bacterial growth incubated for 24 hrs by CLSI protocol based broth microdilution method
[13] = system: Streptococcus pneumoniae; test: Antibacterial activity against penicillin susceptible Streptococcus pneumoniae clinical isolate 20-1 assessed as inhibition of bacterial growth incubated for 24 hrs by CLSI protocol based broth microdilution method
[14] = system: Streptococcus pneumoniae; test: Antibacterial activity against Streptococcus pneumoniae ATCC49619 assessed as inhibition of bacterial growth incubated for 24 hrs by CLSI protocol based broth microdilution method
[15] = system: Staphylococcus aureus; test: Antibacterial activity against vancomycin-intermediate resistant Staphylococcus aureus Mu50 assessed as reduction in bacterial growth by measuring fold change at 0.0625 to 64 ug/ml incubated for 24 hrs by CLSI protocol based broth microdilution method relative to vancomycin; details: dose 0.0625-64 µg/ml
[16] = system: Staphylococcus epidermidis; test: Antibacterial activity against methicillin resistant Staphylococcus epidermidis clinical isolate 20-1 assessed as inhibition of bacterial growth incubated for 24 hrs by CLSI protocol based broth microdilution method

Structure (SMILES)	fold change (FC) [1]	MIC [2]	MIC [3]	MIC [4]	MIC [5]	MIC [6]	MIC [7]	MIC [8]	MIC [9]	MIC [10]	MIC [11]	MIC [12]	MIC [13]	MIC [14]	fold change (FC) [15]	MIC [16]
CN[C@H](CC(C)C)C(=O)N[C@H]1C(=O)N[C@@H](CC(N)=O)C(=O)N[C@H]2C(=O)N[C@H]3C(=O)N[C@H](C(=O)N[C@H](C(=O)O)c4cc(O)cc(O)c4-c4cc3ccc4O)[C@H](O)c3ccc(c(Cl)c3)Oc3cc2cc(c3O[C@@H]2O[C@H](CO)[C@@H](O)[C@H](O)[C@H]2O[C@H]2C[C@](C)(NCc3ccc(Cl)cc3Cl)[C@H](O)[C@H](C)O2)Oc2ccc(cc2Cl)[C@H]1O	8															
CN[C@H](CC(C)C)C(=O)N[C@H]1C(=O)N[C@@H](CC(N)=O)C(=O)N[C@H]2C(=O)N[C@H]3C(=O)N[C@H](C(=O)N[C@H](C(=O)O)c4cc(O)cc(O)c4-c4cc3ccc4O)[C@H](O)c3ccc(c(Cl)c3)Oc3cc2cc(c3O[C@@H]2O[C@H](CO)[C@@H](O)[C@H](O)[C@H]2O[C@H]2C[C@](C)(NCc3ccc(C#Cc4ccccc4)cc3)[C@H](O)[C@H](C)O2)Oc2ccc(cc2Cl)[C@H]1O	16	≤ 0.06 µg/mL	≤ 0.015 µg/mL	≤ 0.015 µg/mL	≤ 0.06 µg/mL	1 µg/mL (≈ 0.61 µM)	0.125 µg/mL (≈ 0.0762 µM)	≤ 0.015 µg/mL	≤ 0.015 µg/mL	4 µg/mL (≈ 2.44 µM)	≤ 0.015 µg/mL	≤ 0.015 µg/mL	≤ 0.015 µg/mL	≤ 0.015 µg/mL	8	
CN[C@H](CC(C)C)C(=O)N[C@H]1C(=O)N[C@@H](CC(N)=O)C(=O)N[C@H]2C(=O)N[C@H]3C(=O)N[C@H](C(=O)N[C@H](C(=O)O)c4cc(O)cc(O)c4-c4cc3ccc4O)[C@H](O)c3ccc(c(Cl)c3)Oc3cc2cc(c3O[C@@H]2O[C@H](CO)[C@@H](O)[C@H](O)[C@H]2O[C@H]2C[C@](C)(NCc3ccc(-c4ccccc4)s3)[C@H](O)[C@H](C)O2)Oc2ccc(cc2Cl)[C@H]1O	16														8	
CN[C@H](CC(C)C)C(=O)N[C@H]1C(=O)N[C@@H](CC(N)=O)C(=O)N[C@H]2C(=O)N[C@H]3C(=O)N[C@H](C(=O)N[C@H](C(=O)O)c4cc(O)c(CN(C)Cc5cn(-c6cccc(NC(=O)OC(C)(C)C)c6)nn5)c(O)c4-c4cc3ccc4O)[C@H](O)c3ccc(c(Cl)c3)Oc3cc2cc(c3O[C@@H]2O[C@H](CO)[C@@H](O)[C@H](O)[C@H]2O[C@H]2C[C@](C)(NCc3cccc(-c4cc(F)ccc4F)n3)[C@H](O)[C@H](C)O2)Oc2ccc(cc2Cl)[C@H]1O	8															
CN[C@H](CC(C)C)C(=O)N[C@H]1C(=O)N[C@@H](CC(N)=O)C(=O)N[C@H]2C(=O)N[C@H]3C(=O)N[C@H](C(=O)N[C@H](C(=O)O)c4cc(O)cc(O)c4-c4cc3ccc4O)[C@H](O)c3ccc(c(Cl)c3)Oc3cc2cc(c3O[C@@H]2O[C@H](CO)[C@@H](O)[C@H](O)[C@H]2O[C@H]2C[C@](C)(NCc3ccc(Oc4ccccc4)cc3)[C@H](O)[C@H](C)O2)Oc2ccc(cc2Cl)[C@H]1O	16	≤ 0.06 µg/mL	≤ 0.03 µg/mL	≤ 0.03 µg/mL	≤ 0.06 µg/mL		0.5 µg/mL (≈ 0.306 µM)	0.125 µg/mL (≈ 0.0766 µM)	≤ 0.03 µg/mL	8 µg/mL (≈ 4.9 µM)	≤ 0.03 µg/mL	≤ 0.03 µg/mL	≤ 0.03 µg/mL	≤ 0.03 µg/mL	8	0.25 µg/mL (≈ 0.153 µM)
CN[C@H](CC(C)C)C(=O)N[C@H]1C(=O)N[C@@H](CC(N)=O)C(=O)N[C@H]2C(=O)N[C@H]3C(=O)N[C@H](C(=O)N[C@H](C(=O)O)c4cc(O)cc(O)c4-c4cc3ccc4O)[C@H](O)c3ccc(c(Cl)c3)Oc3cc2cc(c3O[C@@H]2O[C@H](CO)[C@@H](O)[C@H](O)[C@H]2O[C@H]2C[C@](C)(NCCCc3cn(Cc4ccc(Cl)c(Cl)c4)nn3)[C@H](O)[C@H](C)O2)Oc2ccc(cc2Cl)[C@H]1O	8	≤ 0.015 µg/mL	≤ 0.03 µg/mL	≤ 0.03 µg/mL	≤ 0.015 µg/mL		0.125 µg/mL (≈ 0.0728 µM)	≤ 0.03 µg/mL	≤ 0.03 µg/mL	4 µg/mL (≈ 2.33 µM)	≤ 0.03 µg/mL	≤ 0.03 µg/mL	≤ 0.03 µg/mL	≤ 0.03 µg/mL	8	0.06 µg/mL (≈ 0.0349 µM)
CN[C@H](CC(C)C)C(=O)N[C@H]1C(=O)N[C@@H](CC(N)=O)C(=O)N[C@H]2C(=O)N[C@H]3C(=O)N[C@H](C(=O)N[C@H](C(=O)O)c4cc(O)cc(O)c4-c4cc3ccc4O)[C@H](O)c3ccc(c(Cl)c3)Oc3cc2cc(c3O[C@@H]2O[C@H](CO)[C@@H](O)[C@H](O)[C@H]2O[C@H]2C[C@](C)(NCc3ccc(Oc4cc(Cl)cc(Cl)c4)cc3)[C@H](O)[C@H](C)O2)Oc2ccc(cc2Cl)[C@H]1O	16	≤ 0.06 µg/mL	≤ 0.015 µg/mL	≤ 0.015 µg/mL	≤ 0.06 µg/mL		0.125 µg/mL (≈ 0.0735 µM)	≤ 0.015 µg/mL	≤ 0.015 µg/mL	4 µg/mL (≈ 2.35 µM)	≤ 0.015 µg/mL	0.03 µg/mL (≈ 0.0176 µM)	≤ 0.015 µg/mL	≤ 0.015 µg/mL	8	
CN[C@H](CC(C)C)C(=O)N[C@H]1C(=O)N[C@@H](CC(N)=O)C(=O)N[C@H]2C(=O)N[C@H]3C(=O)N[C@H](C(=O)N[C@H](C(=O)O)c4cc(O)cc(O)c4-c4cc3ccc4O)[C@H](O)c3ccc(c(Cl)c3)Oc3cc2cc(c3O[C@@H]2O[C@H](CO)[C@@H](O)[C@H](O)[C@H]2O[C@H]2C[C@](C)(NCCCc3cn(C4CN(C(c5ccccc5)c5ccccc5)C4)nn3)[C@H](O)[C@H](C)O2)Oc2ccc(cc2Cl)[C@H]1O	8	≤ 0.015 µg/mL	≤ 0.03 µg/mL	≤ 0.03 µg/mL	≤ 0.015 µg/mL		0.5 µg/mL (≈ 0.281 µM)	≤ 0.03 µg/mL	0.06 µg/mL (≈ 0.0337 µM)	8 µg/mL (≈ 4.5 µM)	≤ 0.03 µg/mL	≤ 0.03 µg/mL	≤ 0.03 µg/mL	≤ 0.03 µg/mL	8	
CN[C@H](CC(C)C)C(=O)N[C@H]1C(=O)N[C@@H](CC(N)=O)C(=O)N[C@H]2C(=O)N[C@H]3C(=O)N[C@H](C(=O)N[C@H](C(=O)O)c4cc(O)cc(O)c4-c4cc3ccc4O)[C@H](O)c3ccc(c(Cl)c3)Oc3cc2cc(c3O[C@@H]2O[C@H](CO)[C@@H](O)[C@H](O)[C@H]2O[C@H]2C[C@](C)(NCc3ccc(-c4ccc(C(F)(F)F)cc4)cc3)[C@H](O)[C@H](C)O2)Oc2ccc(cc2Cl)[C@H]1O	16														8	
CN[C@H](CC(C)C)C(=O)N[C@H]1C(=O)N[C@@H](CC(N)=O)C(=O)N[C@H]2C(=O)N[C@H]3C(=O)N[C@H](C(=O)N[C@H](C(=O)O)c4cc(O)c(CN(C)Cc5cn(-c6cccc(NC(=O)OC(C)(C)C)c6)nn5)c(O)c4-c4cc3ccc4O)[C@H](O)c3ccc(c(Cl)c3)Oc3cc2cc(c3O[C@@H]2O[C@H](CO)[C@@H](O)[C@H](O)[C@H]2O[C@H]2C[C@](C)(NCc3ccccc3-c3ccccc3)[C@H](O)[C@H](C)O2)Oc2ccc(cc2Cl)[C@H]1O	8															
CN[C@H](CC(C)C)C(=O)N[C@H]1C(=O)N[C@@H](CC(N)=O)C(=O)N[C@H]2C(=O)N[C@H]3C(=O)N[C@H](C(=O)N[C@H](C(=O)O)c4cc(O)cc(O)c4-c4cc3ccc4O)[C@H](O)c3ccc(c(Cl)c3)Oc3cc2cc(c3O[C@@H]2O[C@H](CO)[C@@H](O)[C@H](O)[C@H]2O[C@H]2C[C@](C)(NCCCc3cn(-c4ccc(OC(F)F)cc4)nn3)[C@H](O)[C@H](C)O2)Oc2ccc(cc2Cl)[C@H]1O	8														8	
CN[C@H](CC(C)C)C(=O)N[C@H]1C(=O)N[C@@H](CC(N)=O)C(=O)N[C@H]2C(=O)N[C@H]3C(=O)N[C@H](C(=O)N[C@H](C(=O)O)c4cc(O)c(CN(C)Cc5cn(-c6cccc(NC(=O)OC(C)(C)C)c6)nn5)c(O)c4-c4cc3ccc4O)[C@H](O)c3ccc(c(Cl)c3)Oc3cc2cc(c3O[C@@H]2O[C@H](CO)[C@@H](O)[C@H](O)[C@H]2O[C@H]2C[C@](C)(NCc3ccccc3Oc3ccccc3)[C@H](O)[C@H](C)O2)Oc2ccc(cc2Cl)[C@H]1O	8															
CN[C@H](CC(C)C)C(=O)N[C@H]1C(=O)N[C@@H](CC(N)=O)C(=O)N[C@H]2C(=O)N[C@H]3C(=O)N[C@H](C(=O)N[C@H](C(=O)O)c4cc(O)cc(O)c4-c4cc3ccc4O)[C@H](O)c3ccc(c(Cl)c3)Oc3cc2cc(c3O[C@@H]2O[C@H](CO)[C@@H](O)[C@H](O)[C@H]2O[C@H]2C[C@](C)(NCCCc3cn(-c4cccc(NC(=O)OC(C)(C)C)c4)nn3)[C@H](O)[C@H](C)O2)Oc2ccc(cc2Cl)[C@H]1O	8														8	
